Source: the supplement of paper PMC10307832

Experiments:
Experiment in all cases: relative viability (nuclei count vs DMSO), 5 days (fraction); higher = more cells survive
[1] = system: LCLC-103H
Method in brief: (§1)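 Relative viability divides the nuclei count in treated wells by that in vehicle wells. Lung cancer cell lines were seeded in 1536-well plates, dosed by pin tool the next day, and fixed and stained after 5 days in one step with final 0.05% Triton X-100, 1% formaldehyde and 1 ug/ml Hoechst. Dosing was a single drug or a fixed anchor-drug dose plus five library-drug doses (not always all listed) in √10 steps, and values are medians of duplicate plates imaged at 4×.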

[2] = system: LXF-289
Method in brief: as §1

[3] = system: NCI-H1355
Method in brief: as §1

[4] = system: NCI-H1651
Method in brief: as §1

[5] = system: NCI-H1755
Method in brief: as §1

[6] = system: NCI-H1792
Method in brief: as §1

[7] = system: NCI-H1915
Method in brief: as §1

[8] = system: NCI-H2347
Method in brief: as §1

[9] = system: NCI-H3122
Method in brief: as §1

[10] = system: NCI-H322M
Method in brief: as §1

[11] = system: NCI-H441
Method in brief: as §1

[12] = system: NCI-H460
Method in brief: as §1

[13] = system: NCI-H520
Method in brief: as §1

[14] = system: NCI-H522
Method in brief: as §1

[15] = system: NCI-H661
Method in brief: as §1

[16] = system: NCI-H727
Method in brief: as §1

[17] = system: PC-14
Method in brief: as §1

[18] = system: RERF-LC-KJ
Method in brief: as §1

[19] = system: SK-MES-1
Method in brief: as §1

[20] = system: SW 900
Method in brief: as §1

SMILES: Cc1sc2c(c1C)C(c1ccc(Cl)cc1)=N[C@@H](CC(=O)OC(C)(C)C)c1nnc(C)n1-2 [JQ1] + CC(=O)c1c(C)c2cnc(Nc3ccc(N4CCNCC4)cn3)nc2n(C2CCCC2)c1=O [Palbociclib] (partner 0.5 µM)
- relative viability ([1]; first compound 0.04 µM): 0.46
- relative viability ([1]; first compound 0.1265 µM): 0.438
- relative viability ([1]; first compound 0.4 µM): 0.42
- relative viability ([1]; first compound 1.265 µM): 0.419
- relative viability ([1]; first compound 4 µM): 0.328
- relative viability ([2]; first compound 0.04 µM): 0.562
- relative viability ([2]; first compound 0.1265 µM): 0.591
- relative viability ([2]; first compound 0.4 µM): 0.576
- relative viability ([2]; first compound 1.265 µM): 0.426
- relative viability ([2]; first compound 4 µM): 0.353
- relative viability ([3]; first compound 0.04 µM): 0.375
- relative viability ([3]; first compound 0.1265 µM): 0.372
- relative viability ([3]; first compound 0.4 µM): 0.323
- relative viability ([3]; first compound 1.265 µM): 0.276
- relative viability ([3]; first compound 4 µM): 0.233
- relative viability ([4]; first compound 0.04 µM): 0.494
- relative viability ([4]; first compound 0.1265 µM): 0.416
- relative viability ([4]; first compound 0.4 µM): 0.403
- relative viability ([4]; first compound 1.265 µM): 0.299
- relative viability ([4]; first compound 4 µM): 0.282
- relative viability ([5]; first compound 0.04 µM): 0.434
- relative viability ([5]; first compound 0.1265 µM): 0.426
- relative viability ([5]; first compound 0.4 µM): 0.416
- relative viability ([5]; first compound 1.265 µM): 0.388
- relative viability ([5]; first compound 4 µM): 0.353
- relative viability ([6]; first compound 0.04 µM): 0.6
- relative viability ([6]; first compound 0.4 µM): 0.538
- relative viability ([6]; first compound 1.265 µM): 0.446
- relative viability ([6]; first compound 4 µM): 0.385
- relative viability ([7]; first compound 0.04 µM): 0.542
- relative viability ([7]; first compound 0.4 µM): 0.37
- relative viability ([7]; first compound 1.265 µM): 0.295
- relative viability ([7]; first compound 4 µM): 0.179
- relative viability ([8]; first compound 0.04 µM): 0.446
- relative viability ([8]; first compound 0.1265 µM): 0.393
- relative viability ([8]; first compound 0.4 µM): 0.385
- relative viability ([8]; first compound 1.265 µM): 0.327
- relative viability ([8]; first compound 4 µM): 0.32
- relative viability ([9]; first compound 0.04 µM): 0.22
- relative viability ([9]; first compound 0.1265 µM): 0.203
- relative viability ([9]; first compound 0.4 µM): 0.191
- relative viability ([9]; first compound 1.265 µM): 0.185
- relative viability ([9]; first compound 4 µM): 0.139
- relative viability ([10]; first compound 0.04 µM): 0.477
- relative viability ([10]; first compound 0.1265 µM): 0.491
- relative viability ([10]; first compound 0.4 µM): 0.428
- relative viability ([10]; first compound 1.265 µM): 0.385
- relative viability ([10]; first compound 4 µM): 0.406
- relative viability ([11]; first compound 0.04 µM): 0.19
- relative viability ([11]; first compound 0.1265 µM): 0.206
- relative viability ([11]; first compound 0.4 µM): 0.176
- relative viability ([11]; first compound 1.265 µM): 0.137
- relative viability ([11]; first compound 4 µM): 0.132
- relative viability ([12]; first compound 0.04 µM): 0.172
- relative viability ([12]; first compound 0.1265 µM): 0.0585
- relative viability ([12]; first compound 0.4 µM): 0.0456
- relative viability ([12]; first compound 1.265 µM): 0.0198
- relative viability ([12]; first compound 4 µM): 0.0263
- relative viability ([13]; first compound 0.04 µM): 0.197
- relative viability ([13]; first compound 0.1265 µM): 0.196
- relative viability ([13]; first compound 0.4 µM): 0.184
- relative viability ([13]; first compound 1.265 µM): 0.154
- relative viability ([13]; first compound 4 µM): 0.143
- relative viability ([14]; first compound 0.04 µM): 1.04
- relative viability ([14]; first compound 0.1265 µM): 0.881
- relative viability ([14]; first compound 0.4 µM): 0.697
- relative viability ([14]; first compound 1.265 µM): 0.478
- relative viability ([14]; first compound 4 µM): 0.39
- relative viability ([15]; first compound 0.04 µM): 0.406
- relative viability ([15]; first compound 0.1265 µM): 0.369
- relative viability ([15]; first compound 0.4 µM): 0.424
- relative viability ([15]; first compound 1.265 µM): 0.406
- relative viability ([15]; first compound 4 µM): 0.397
- relative viability ([16]; first compound 0.04 µM): 0.63
- relative viability ([16]; first compound 0.1265 µM): 0.576
- relative viability ([16]; first compound 0.4 µM): 0.61
- relative viability ([16]; first compound 1.265 µM): 0.538
- relative viability ([16]; first compound 4 µM): 0.581
- relative viability ([17]; first compound 0.04 µM): 0.486
- relative viability ([17]; first compound 0.1265 µM): 0.238
- relative viability ([17]; first compound 0.4 µM): 0.221
- relative viability ([17]; first compound 1.265 µM): 0.116
- relative viability ([17]; first compound 4 µM): 0.104
- relative viability ([18]; first compound 0.04 µM): 1.13
- relative viability ([18]; first compound 0.1265 µM): 0.868
- relative viability ([18]; first compound 0.4 µM): 0.887
- relative viability ([18]; first compound 1.265 µM): 0.254
- relative viability ([18]; first compound 4 µM): 0.246
- relative viability ([19]; first compound 0.04 µM): 0.295
- relative viability ([19]; first compound 0.1265 µM): 0.264
- relative viability ([19]; first compound 0.4 µM): 0.234
- relative viability ([19]; first compound 1.265 µM): 0.213
- relative viability ([19]; first compound 4 µM): 0.23
- relative viability ([20]; first compound 0.04 µM): 0.506
- relative viability ([20]; first compound 0.1265 µM): 0.465
- relative viability ([20]; first compound 0.4 µM): 0.318
- relative viability ([20]; first compound 1.265 µM): 0.289
- relative viability ([20]; first compound 4 µM): 0.222
